The supplement of paper PMC10307832

Key:
Experiment in all cases: relative viability (nuclei count vs DMSO), 5 days (fraction); higher = more cells survive
Bicalutamide + AZD7762 = compound: CC(O)(CS(=O)(=O)c1ccc(F)cc1)C(=O)Nc1ccc(C#N)c(C(F)(F)F)c1 [Bicalutamide] + NC(=O)Nc1cc(-c2cccc(F)c2)sc1C(=O)N[C@H]1CCCNC1 [AZD7762] (partner 0.2 µM)
In short: (§1)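 A single step with final 0.05% Triton X-100, 1% formaldehyde and 1 ug/ml Hoechst fixed the cells and stained nuclei 5 days after treatment. Lung cancer cell lines in 1536-well plates had been treated by pin tool the day after seeding with one drug alone or a fixed anchor-drug dose plus five library-drug doses (not always all listed) in √10 steps, and nuclei were counted on 4× images. Relative viability is the ratio of nuclei in treated wells to nuclei in vehicle wells, taken as the median of duplicate plates.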

[1] = compound: CC(O)(CS(=O)(=O)c1ccc(F)cc1)C(=O)Nc1ccc(C#N)c(C(F)(F)F)c1 [Bicalutamide] + CS(=O)(=O)N1CCN(Cc2cc3nc(-c4cccc5[nH]ncc45)nc(N4CCOCC4)c3s2)CC1 [Pictilisib] (partner 1 µM)
In short: as §1

[2] = compound: C(C(=O)C(=O)O)Br [Bromopyruvate] + CCNC(=O)c1noc(-c2cc(C(C)C)c(O)cc2O)c1-c1ccc(CN2CCOCC2)cc1 [Luminespib] (partner 0.01 µM)
In short: as §1

Bromopyruvate + Olaparib = compound: C(C(=O)C(=O)O)Br [Bromopyruvate] + O=C(c1cc(Cc2n[nH]c(=O)c3ccccc23)ccc1F)N1CCN(C(=O)C2CC2)CC1 [Olaparib] (partner 8 µM)
In short: as §1

Cell Line	relative viability (Bicalutamide + AZD7762; first compound 0.08 µM)	relative viability (Bicalutamide + AZD7762; first compound 0.253 µM)	relative viability (Bicalutamide + AZD7762; first compound 0.8 µM)	relative viability (Bicalutamide + AZD7762; first compound 2.53 µM)	relative viability ([1]; first compound 0.08 µM)	relative viability ([1]; first compound 0.253 µM)	relative viability ([1]; first compound 0.8 µM)	relative viability ([1]; first compound 2.53 µM)	relative viability ([2]; first compound 1 µM)	relative viability ([2]; first compound 3.162 µM)	relative viability ([2]; first compound 10 µM)	relative viability ([2]; first compound 31.62 µM)	relative viability ([2]; first compound 100 µM)	relative viability (Bromopyruvate + Olaparib; first compound 1 µM)	relative viability (Bromopyruvate + Olaparib; first compound 3.162 µM)	relative viability (Bromopyruvate + Olaparib; first compound 10 µM)	relative viability (Bromopyruvate + Olaparib; first compound 31.62 µM)	relative viability (Bromopyruvate + Olaparib; first compound 100 µM)
HCC-15	1.07	1.05	1.2	1.09	0.714	0.699	0.951	0.77	0.363	0.416	0.509	0.328	0.25	0.745	0.735	0.697	0.734	0.699
ABC-1	0.828	0.572	1.02	0.772	0.812	0.731	1.06	0.758	0.519	0.823	0.575	0.499	0.234	0.775				0.566
LCLC-103H	0.829	0.791	0.8	0.814	0.692	0.444	0.673	0.544	0.963	0.998	1.05	0.938	0.878	0.744	0.773	0.752	0.848	0.809
NCI-H460	0.816	0.659	0.76	0.735	0.343	0.335	0.478	0.356	0.0351	0.0317	0.0297	0.0334	0.0363	0.457	0.404	0.469	0.397	0.462
EPLC-272H	0.155	0.297	0.215	0.239	0.311	0.266	0.329	0.33	0.28	0.183	0.249	0.2	0.211	0.783	0.885	0.971	0.932	0.699
